Assay results reported in patent publication US20050112573A1, “Method of detecting toxic substance” (priority 2001, published 2005).

System: yeast genes (level of expressed mRNA)
Test: DNA chip analysis of expressed mRNA of yeast genes after 2 h culture with a toxic chemical substance
Assay type: cell-based, Saccharomyces cerevisiae S288C
Method: Yeast (Saccharomyces cerevtisiae S288C (α SUC2mal mel gap2 CUP1)) were cultured at 25° C. on YPD medium (yeast extract 1%, polypepton 2%, glucose 2%). One of toxic chemical substances was added to the cell at logarithmic growth phase, and the cell was further cultured for two hours. Cell was cultured without any chemical substance in the same condition, and was used as control. Concentrations of the chemical substances were defined to inhibit the growth of the yeast but not lead to death.
After the completion of cultivation, the culture was centrifuged to collect the cells. To the cells, sodium acetate buffer (50 mM sodium acetate, 10 mM EDTA, 1% SDS) was added, and the mixture was shaken at 65° C. for five minutes, followed by returning to room temperature, and obtaining the supernatant, which procedure was repeated two times. To the supernatant, ½ amount of a solution of phenol/chloroform was added, and the mixture was centrifuged to give a supernatant, which was added with an equal amount of chloroform, and the mixture was centrifuged to give a supernatant. To the supernatant, an equal amount of isopropanol containing 0.3 M sodium acetate was added, and the mixture was allowed to stand at room temperature for 30 minutes, after which the mixture was centrifuged to give a sediment of the whole RNAs. Seventy % ethanol was added to the sediment, and the mixture was again centrifuged to give a sediment, which was then dried and dissolved in water. mRNA was isolated from the whole RNAs as followings. In view of the fact that a poly A chain is attached to the 3′ terminus of mRNA, a polynucleotide having a poly T structure which was immobilized on the surface of latex beads was used to trap the mRNA, and then the mRNA was washed and eluted with spine column (Oligotex-dT30<Super>mRNA Purification Kit, Takara). Reverse transcription of the mRNA was conducted with a reverse transcriptase (Super Script II Reverse Transcriptase; catalogue No. 18064-014, GibcoBRL) using fluorescence-labeled nucleotides to give cDNAs that were introduced with Cy3-dUTP or Cy5-dUTP during the reverse transcription.
The labeled cDNAs were dissolved in TE buffer (10 mM Tris-HCl/1 mM EDTA, pH8.0), and the solution was dropped on the DNA chip containing the whole genes of yeast (DNA Chip Research Inc. Japan) so that the cDNAs were hybridized on the DNA chip at 65° C. for over 12 hours. The fluoresces intensity of the DNA chip was read with a scanner, and the ratio relative to the fluorescence intensity resulting from the absence of chemical substance was estimated as the following, which is shown in Tables 1 to 9: [formula]
In the Tables, “Intensity” indicated in the rightmost column is a value of the level of expressed mRNA of each gene in control cells as divided by the average level of the expressions of the whole genes.

γ-hexachlorocyclohexane [(7)]
The level of expressed mRNA in the presence of chemical substance/ (yeast gene YFL010C, ratio to control without chemical substance, 2 h culture): 1.5
The level of expressed mRNA in the presence of chemical substance/ (yeast gene YFL024C, ratio to control without chemical substance, 2 h culture): 3.3
The level of expressed mRNA in the presence of chemical substance/The level of expressed mRNA in the absence of chemical substance (yeast gene YFL028C): 2.0
The level of expressed mRNA in the presence of chemical substance/ (yeast gene YFL032W, ratio to control without chemical substance, 2 h culture): 1.1
The level of expressed mRNA in the presence of chemical substance/The level of expressed mRNA in the absence of chemical substance (yeast gene YFL043C): 1.8
The level of expressed mRNA in the presence of chemical substance/in the absence of chemical substance (yeast gene YGL035C): 1.2
The level of expressed mRNA in the presence of chemical substance/ (yeast gene YGL037C, ratio to control without chemical substance, 2 h culture): 2.9
The level of expressed mRNA in the presence of chemical substance/ (yeast gene YGL047W, ratio to control without chemical substance, 2 h culture): 1.7
The level of expressed mRNA in the presence of chemical substance/ (yeast gene YGL053W, ratio to control without chemical substance, 2 h culture): 3.7
The level of expressed mRNA in the presence of chemical substance/ (yeast gene YGL121C, ratio to control without chemical substance, 2 h culture): 4.7
The level of expressed mRNA in the presence of chemical substance/The level of expressed mRNA in the absence of chemical substance (yeast gene YGL158W): 1.3
The level of expressed mRNA in the presence of chemical substance/ (yeast gene YGL199C, ratio to control without chemical substance, 2 h culture): 1.3
The level of expressed mRNA in the presence of chemical substance/The level of expressed mRNA in the absence of chemical substance (yeast gene YGL229C): 2.2
The level of expressed mRNA in the presence of chemical substance/ (yeast gene YGR101W, ratio to control without chemical substance, 2 h culture): 1.5
The level of expressed mRNA in the presence of chemical substance/ (yeast gene YGR110W, ratio to control without chemical substance, 2 h culture): 1.7
The level of expressed mRNA in the presence of chemical substance/ (yeast gene YGR130C, ratio to control without chemical substance, 2 h culture): 1.3
The level of expressed mRNA in the presence of chemical substance/The level of expressed mRNA in the absence of chemical substance (yeast gene YGR136W): 1.5
The level of expressed mRNA in the presence of chemical substance/ (yeast gene YGR154C, ratio to control without chemical substance, 2 h culture): 2.0
The level of expressed mRNA in the presence of chemical substance/The level of expressed mRNA in the absence of chemical substance (yeast gene YGR189C): 0.6
The level of expressed mRNA in the presence of chemical substance/The level of expressed mRNA in the absence of chemical substance (yeast gene YGR213C): 7.0
The level of expressed mRNA in the presence of chemical substance/ (yeast gene YGR221C, ratio to control without chemical substance, 2 h culture): 1.2
The level of expressed mRNA in the presence of chemical substance/The level of expressed mRNA in the absence of chemical substance (yeast gene YGR257C): 2.4
The level of expressed mRNA in the presence of chemical substance/in the absence of chemical substance (yeast gene YGR287C): 2.2
The level of expressed mRNA in the presence of chemical substance/The level of expressed mRNA in the absence of chemical substance (yeast gene YHR004C): 1.5
The level of expressed mRNA in the presence of chemical substance/The level of expressed mRNA in the absence of chemical substance (yeast gene YHR071W): 1.0
The level of expressed mRNA in the presence of chemical substance/ (yeast gene YHR138C, ratio to control without chemical substance, 2 h culture): 3.0
The level of expressed mRNA in the presence of chemical substance/The level of expressed mRNA in the absence of chemical substance (yeast gene YHR139C): 1.5
The level of expressed mRNA in the presence of chemical substance/The level of expressed mRNA in the absence of chemical substance (yeast gene YHR142W): 0.9
The level of expressed mRNA in the presence of chemical substance/ (yeast gene YHR199C, ratio to control without chemical substance, 2 h culture): 1.1
The level of expressed mRNA in the presence of chemical substance/ (yeast gene YIL023C, ratio to control without chemical): 1.2
The level of expressed mRNA in the presence of chemical substance/ (yeast gene YIL041W, ratio to control without chemical substance, 2 h culture): 0.8
The level of expressed mRNA in the presence of chemical substance/ (yeast gene YIL087C, ratio to control without chemical substance, 2 h culture): 1.8
The level of expressed mRNA in the presence of chemical substance/The level of expressed mRNA in the absence of chemical substance (yeast gene YIL123W): 0.5
The level of expressed mRNA in the presence of chemical substance/The level of expressed mRNA in the absence of chemical substance (yeast gene YIL140W): 0.5
The level of expressed mRNA in the presence of chemical substance/ (yeast gene YJL057C, ratio to control without chemical substance, 2 h culture): 2.7
The level of expressed mRNA in the presence of chemical substance/ (yeast gene YJL066C, ratio to control without chemical substance, 2 h culture): 1.6
The level of expressed mRNA in the presence of chemical substance/in the absence of chemical substance (yeast gene YJL070C): 1.4
The level of expressed mRNA in the presence of chemical substance/ (yeast gene YJL082W, ratio to control without chemical substance, 2 h culture): 0.4
The level of expressed mRNA in the presence of chemical substance/The level of expressed mRNA in the absence of chemical substance (yeast gene YJL089W): 1.1
The level of expressed mRNA in the presence of chemical substance/The level of expressed mRNA in the absence of chemical substance (yeast gene YJL116C): 0.8
The level of expressed mRNA in the presence of chemical substance/ (yeast gene YJL151C, ratio to control without chemical substance, 2 h culture): 1.4
The level of expressed mRNA in the presence of chemical substance/ (yeast gene YJL152W, ratio to control without chemical substance, 2 h culture): 1.2
The level of expressed mRNA in the presence of chemical substance/ (yeast gene YJL161W, ratio to control without chemical substance, 2 h culture): 3.6
The level of expressed mRNA in the presence of chemical substance/in the absence of chemical substance (yeast gene YJL167W): 1.5
The level of expressed mRNA in the presence of chemical substance/ (yeast gene YJL171C, ratio to control without chemical substance, 2 h culture): 1.4
The level of expressed mRNA in the presence of chemical substance/in the absence of chemical substance (yeast gene YJL216C): 1.5
The level of expressed mRNA in the presence of chemical substance/The level of expressed mRNA in the absence of chemical substance (yeast gene YJR004C): 0.4
The level of expressed mRNA in the presence of chemical substance/ (yeast gene YJR008W, ratio to control without chemical substance, 2 h culture): 2.9
The level of expressed mRNA in the presence of chemical substance/ (yeast gene YJR054W, ratio to control without chemical): 0.9
The level of expressed mRNA in the presence of chemical substance/The level of expressed mRNA in the absence of chemical substance (yeast gene YJR086W): 1.7
The level of expressed mRNA in the presence of chemical substance/The level of expressed mRNA in the absence of chemical substance (yeast gene YKL008C): 1.4
The level of expressed mRNA in the presence of chemical substance/The level of expressed mRNA in the absence of chemical substance (yeast gene YKL013C): 1.8
The level of expressed mRNA in the presence of chemical substance/The level of expressed mRNA in the absence of chemical substance (yeast gene YKL039W): 2.0
The level of expressed mRNA in the presence of chemical substance/The level of expressed mRNA in the absence of chemical substance (yeast gene YKL041W): 1.0
The level of expressed mRNA in the presence of chemical substance/ (yeast gene YKL071W, ratio to control without chemical substance, 2 h culture): 3.7
The level of expressed mRNA in the presence of chemical substance/ (yeast gene YKL086W, ratio to control without chemical): 0.7
